“Also recorded” adds a separate entry of the source. Read-outs that look alike come from different tables or passages of the source.
Experiments:
[1] = tested on: rhTBP binding to the HIV-1 TATA element; test: DNase I footprinting, inhibition of TBP binding to HIV-1 LTR fragment; design: species or system human
Procedure: (§1) Regions of polyamide protection were determined by analysis of the digestion products on a 6% denaturing polyacrylamide sequencing gel. Storage phosphorimage analysis of the data was used to obtain dissociation constants for the binding reactions (using Kodak Storage Phosphor Screens and a Molecular Dynamics SF PhosphorImager). Recombinant human TBP (rhTBP) was obtained from Promega and was used in footprinting and gel mobility shift experiments as recommended. The reaction mixtures also contained 100 ng of poly dG-poly dC per 10 μL gel shift reaction or 50 μL footprinting reaction. For gel mobility shift assays, 6% polyacrylamide gels (20:1, acrylamide to bisacrylamide) contained 44 mM Tris-borate, pH 8.3, 1 mM EDTA, 4 nM MgCl2 and 0.02% (v/v) NP-40. The same buffer was used for electrophoresis of 1 mm thick gels at 15 volts/cm for 2 hours at 4° C.

[2] = tested on: 5′-AGTGAA-3′ within the IE86 binding site; design: species or system human cytomegalovirus; settings: 1-200 nM
Description: These compounds together with purified recombinant IE86 protein were used in DNase I footprint experiments with a singly end-labeled restriction fragment derived from the CMV major immediate early promoter. […] A singly-end labeled restriction fragment was used in DNase I footprinting reactions. […] Lanes 1 and 18 represent a G+A sequencing ladder. […] The location of the TATA box and the start of transcription are indicated.

[3] = tested on: 5′-TGCTGCA-3′ (the HIV-1 target sequence); type: binding
[4] = tested on: 5′-TCGTCGA-3′ (reversed orientation match site); type: binding
Ets-1 ΔN331/DNA complex = test: Gel mobility shift, Ets-1 binding to HIV-1 enhancer oligonucleotide
[5] = tested on: HIV-1 enhancer/promoter restriction fragment; test: DNase footprint titration on HIV-1 enhancer/promoter fragment, other sites; type: binding; settings: mismatch polyamide, 1-60 nM
Description: White, S., Baird, E. E. & Dervan, P. B. describes the pairing rules for recognition in the minor groove of DNA by pyrrole-imidazole polyamides. Chem. & Biol. 4, 569-578 (1997); Swalley, S. E., Baird, E. E. & Dervan, P. B. describe the sequence specificity of the β/β pairing Chem Eur. J. 3, 1600 (1997). […] For DNase I footprinting a 400-bp restriction fragment containing the HIV-1 enhancer and promoter regions was isolated from pHIV LTR-CAT plasmid DNA (obtained from Dr. K. A. Jones of The Salk Institute, La Jolla, Calif.) (P. L. Sheridan et al., describe the sequence composition of the plasmid pHIV LTR-CAT Genes Dev. 9, 2090 (1995)). Labeled DNA was incubated with polyamide (45 minutes) and digested with DNase I under single-hit conditions.
as §1, with “For gel mobility shift assays, 6% polyacrylamide gels (20:1, acrylamide to bisacrylamide) contained 44 mM Tris-borate, pH 8.3, 1 mM EDTA, 4 nM MgCl2 and 0.02% (v/v) NP-40. The same buffer was used for electrophoresis of 1 mm thick gels at 15 volts/cm for 2 hours at 4° C.” left out

[6] = tested on: TBP binding to the TATA box region of the adenovirus major late promoter; test: Gel mobility shift, TBP binding to adenovirus major late promoter TATA box; design: species or system human; settings: mismatch flanking sequences
Procedure: as §1

[7] = tested on: CMV major immediate early promoter; test: CMV MIEP transcription in vitro (control template); type: biochemical, human cytomegalovirus; settings: H9/HeLa extract system
Procedure: The effects of polyamides 1 and 2 on HIV-1 transcription were tested in an in vitro transcription assay with a HeLa cell nuclear extract (FIG. 21A). The effects of the polyamides on basal transcription by RNA polymerase II was monitored with a nuclear extract prepared from HeLa cells (J. D. Dignam, P. L. Martin, B. S. Shastry, R. G. Roeder, Describe eukaryotic gene transcription with purified components Meth. Enzymol. 101, 582 (1983)). The human lymphloid cell line H9 (ATCC HTB 176) was grown in suspension culture in RPMI medium (Bio Whittaker) supplemented with 10% fetal calf serum (Tissue Culture Biological). Whole cell extracts of H9 cells in log phase growth were prepared by hypotonic lysis and contained 20 mg/ml protein, as determined by the Bradford reaction. Run-off RNA transcripts of ˜300 bases (CMV MIEP linked to a guanine-less cassette, plasmid pEIB-GL and ˜500 bases (pHIV LTR-CAT) where obtained with EcoRI-digested plasmid DNA (100 ng per 25 μL reaction).
Polyamide-DNA complexes were allowed to form at ambient temperature for 30 min prior to addition of the nuclear extract. […] RNA was purified by extraction with RNAzol (TelTest, Friendswood, Tex.) and analyzed by electrophoresis on a denaturing (8.3 M urea) 6% polyacrylamide gel. […]

## CN(C)CCCNC(=O)CCNC(=O)c1cc(NC(=O)c2nc(NC(=O)CCNC(=O)c3cc(NC(=O)c4nc(NC(=O)CCCNC(=O)c5cc(NC(=O)c6nc(NC(=O)CCNC(=O)c7cc(NC(=O)c8nccn8C)cn7C)cn6C)cn5C)cn4C)cn3C)cn2C)cn1C [polyamide 4, ImPy-β-ImPy-γ-ImPy-β-ImPy-β-Dp]
[1]; DNase I footprinting, 2.5-10 nM polyamide
  inhibition of TBP binding to the HIV-1 TATA element: inhibited
[1]; five-fold excess of polyamide over DNA binding sites
  polyamide concentration at which TBP binding is inhibited: 2.5 nM
[2]
  footprint on the CMV fragment: did not give a footprint
[3]; Buffer A, 24° C.
  Equilibrium association constants, 5′-aTGCTGCA-3′: 1.5 × 10^10 (0.3) M^a
[3]; Buffer A, 37° C.
  Equilibrium association constants, 5′-aTGCTGCA-3′: 8.4 × 10^9 (2.3) M^a
[3]; Buffer B (140 mM KCl, 10 mM NaCl, 1 mM MgCl2, 1 mM spermine pH 7.2), 24° C.
  Equilibrium association constants, 5′-aTGCTGCA-3′: 1.9 × 10^10 (0.6) M^a
[3]; Buffer B, 37° C.
  Equilibrium association constants, 5′-aTGCTGCA-3′: 1.1 × 10^10 (0.2) M^a
[3]; polyamide 4 vs 8
  fold higher affinity relative to unlinked analog: ~6000 fold
[4]
  fold lower affinity for 5′-TCGTCGA-3′ than for 5′-TGCTGCA-3′: ~10 fold
Ets-1 ΔN331/DNA complex; polyamide preincubated with oligonucleotide, 100-400 nM
  effect on Ets-1 DNA-binding / complex formation: did not prevent
Ets-1 ΔN331/DNA complex; titration, mismatch polyamide
  effect on complex formation in the same concentration range: virtually no effect
[5]
  binding to the HIV-1 enhancer/promoter fragment: failed to detect any high affinity sites; also recorded: does not bind
[6]
  inhibition of TBP binding to adenovirus major late promoter TATA box: did not inhibit
[7]
  inhibition of CMV transcription: fails to inhibit
